According to patent publication US20100298141A1, “SUBSTITUTED PYRIDINE N-OXIDE HERBICIDES” (E. I. DU PONT DE NEMOURS AND COMPANY, priority 2007, published 2010):

Columns and labels:
junglerice = assay: Test E flooded paddy test; assay type: in vivo, Echinochloa colona; conditions: Flood, after 21 days, scale 0 to 100
Source text: (§1) Three plastic pots (ca. 16-cm diameter) per rate were partially filled with sterilized Tama silt loam soil comprising a 35:50:15 ratio of sand, silt and clay and 2.6% organic matter. Separate plantings for each of the three pots were as follows. Seeds from the U.S. of ducksalad (Heteranthera limosa), smallflower umbrella sedge (Cyperus difformis) and purple […] coccinea), were planted into one 16-cm pot for each rate. […] Seeds from the U.S. of barnyardgrass (Echinochloa crus-galli), late watergrass (Echinochloa oryzicola), early watergrass (Echinochloa oryzoides) and junglerice (Echinochloa colona) were planted into one 16-cm pot for each rate. Plantings were sequential so that crop and weed species were at the 2.0 to 2.5-leaf stage at time of treatment. Potted plants were grown in a greenhouse with day/night temperature settings of 30/27° C., and supplemental balanced lighting was provided to maintain a 16-hour photoperiod. Test pots were maintained in the greenhouse until test completion. At time of treatment, test pots were flooded to 3 cm above the soil surface, treated by application of test compounds directly to the paddy water, and then maintained at that water depth for the duration of the test. Effects of treatments on rice and weeds were visually evaluated by comparison to untreated controls after 21 days. […] A dash (-) response means no test result.

late watergrass = assay: Test E flooded paddy test; assay type: in vivo, Echinochloa oryzicola; conditions: Flood, after 21 days, scale 0 to 100
Source text: as §1

[1] = system: transplanted rice seedlings; assay: Test E flooded paddy test; assay type: in vivo, Oryza sativa cv. ‘Japonica-M202’; conditions: Flood, after 21 days, scale 0 to 100
Source text: as §1

barnyardgrass = assay: Test E flooded paddy test; assay type: in vivo, Echinochloa crus-galli; conditions: Flood, after 21 days, scale 0 to 100
Source text: as §1

rice flatsedge = assay: Test E flooded paddy test; assay type: in vivo, Cyperus iria; conditions: Flood, after 21 days, scale 0 to 100
Source text: as §1

ducksalad = assay: Test E flooded paddy test; assay type: in vivo, Heteranthera limosa; conditions: Flood, after 21 days, scale 0 to 100
Source text: as §1

purple redstem = assay: Test E flooded paddy test; assay type: in vivo, Ammannia coccinea; conditions: Flood, after 21 days, scale 0 to 100
Source text: as §1

giant foxtail (SETFA) = assay: Test H preemergence mixtures of compound 2 with crop safeners; assay type: in vivo, Setaria faberi; set-up: key to SETFA Obsd. (observed effect): observed % effect, visually evaluated vs controls
Source text: Seeds of test plants consisting of winter wheat (TRZAW, Triticum aestivum), corn (ZEAMD, Zea mays cv. ‘Pioneer 33G26’), giant foxtail (SETFA, Setaria faberi), and Italian ryegrass (LOLMU, Lolium multiflorum) were planted into a blend of loam soil and sand and treated preemergence with a directed soil spray using test chemicals formulated in a non-phytotoxic solvent mixture that included a surfactant. Seeds of small-seeded species were planted about 1 cm deep; larger seeds were planted about 2.5 cm deep. […] Balanced fertilizer was applied through the watering system. Treatments consisted of Compound 2 and the above mentioned safeners alone and in combination using a spray volume of 457 L/ha. Each treatment was replicated four times. Treated plants and controls were maintained in a greenhouse for 14 to 21 days, after which time all species were compared to controls and visually evaluated. […] A dash (-) response means no test result. Colby's Equation was used to determine the herbicidal effects expected from the mixtures. Colby's Equation (Colby, S. […] wherein • Pa+b is the percentage effect of the mixture expected from additive contribution of the individual components, • Pa is the observed percentage effect of the first active ingredient at the same use rate as in the mixture, and • Pb is the observed percentage effect of the second active ingredient at the same use rate as in the mixture.

corn (ZEAMD) = assay: Test I preemergence mixtures of compound 2 with crop safeners; assay type: in vivo, Zea mays cv. ‘Pioneer 33G26’; conditions: alone
Source text: (§2) Seeds of test plants consisting of winter wheat (TRZAW, Triticum aestivum), corn (ZEAMD, Zea mays cv. ‘Pioneer 33G26’), wild oat (AVEFA, Avena fatua), and Italian ryegrass (LOLMU, Lolium multiflorum) were planted into a blend of loam soil and sand and treated preemergence with a directed soil spray using test chemicals formulated in a non-phytotoxic solvent mixture that included a surfactant. Seeds of small-seeded species were planted about 1 cm deep; larger seeds were planted about 2.5 cm deep. […] Balanced fertilizer was applied through the watering system. Treatments consisted of Compound 2 and the above mentioned safeners alone and in combination using a spray volume of 457 L/ha. Each treatment was replicated four times. Treated plants and controls were maintained in a greenhouse for 14 to 21 days, after which time all species were compared to controls and visually evaluated. […] A dash (-) response means no test result. Colby's Equation was used to determine the herbicidal effects expected from the mixtures. Colby's Equation (Colby, S. […] Pa+b=Pa+Pb−(PaPb/100) wherein • Pa+b is the percentage effect of the mixture expected from additive contribution of the individual components, • Pa is the observed percentage effect of the first active ingredient at the same use rate as in the mixture, and • Pb is the observed percentage effect of the second active ingredient at the same use rate as in the mixture.

wild oat (AVEFA) = assay: as above; assay type: in vivo, Avena fatua; conditions: alone
Source text: as §2

winter wheat (TRZAW) = assay: as above; assay type: in vivo, Triticum aestivum; conditions: alone
Source text: as §2

## Cn1nc(C(F)(F)F)c(C[S+]([O-])c2cc(Br)cc[n+]2[O-])c1Cl (racemic) [Compound 35]
junglerice; 16 g ai/ha
  Plant response rating, Junglerice: 0
junglerice; 32 g ai/ha
  Plant response rating, Junglerice: 0
junglerice; 64 g ai/ha
  Plant response rating, Junglerice: 0
junglerice; 125 g ai/ha
  Plant response rating, Junglerice: 0
junglerice; 250 g ai/ha
  Plant response rating, Junglerice: 40
Late watergrass; 16 g ai/ha
  Plant response rating, Watergrass, Late: 0
Late watergrass; 32 g ai/ha
  Plant response rating, Watergrass, Late: 0
Late watergrass; 64 g ai/ha
  Plant response rating, Watergrass, Late: 0
Late watergrass; 125 g ai/ha
  Plant response rating, Watergrass, Late: 30
Late watergrass; 250 g ai/ha
  Plant response rating, Watergrass, Late: 60
[1]; 16 g ai/ha
  Plant response rating, Rice, Transplanted: 0
[1]; 32 g ai/ha
  Plant response rating, Rice, Transplanted: 0
[1]; 64 g ai/ha
  Plant response rating, Rice, Transplanted: 0
[1]; 125 g ai/ha
  Plant response rating, Rice, Transplanted: 15
[1]; 250 g ai/ha
  Plant response rating, Rice, Transplanted: 15
barnyardgrass; 16 g ai/ha
  Plant response rating, Barnyardgrass: 0
barnyardgrass; 32 g ai/ha
  Plant response rating, Barnyardgrass: 0
barnyardgrass; 64 g ai/ha
  Plant response rating, Barnyardgrass: 0
barnyardgrass; 125 g ai/ha
  Plant response rating, Barnyardgrass: 0
barnyardgrass; 250 g ai/ha
  Plant response rating, Barnyardgrass: 50
Rice flatsedge; 16 g ai/ha
  Plant response rating, Flatsedge, Rice: 0
Rice flatsedge; 32 g ai/ha
  Plant response rating, Flatsedge, Rice: 30
Rice flatsedge; 64 g ai/ha
  Plant response rating, Flatsedge, Rice: 70
Rice flatsedge; 125 g ai/ha
  Plant response rating, Flatsedge, Rice: 80
Rice flatsedge; 250 g ai/ha
  Plant response rating, Flatsedge, Rice: 95
ducksalad; 16 g ai/ha
  Plant response rating, Ducksalad: 0
ducksalad; 32 g ai/ha
  Plant response rating, Ducksalad: 40
ducksalad; 64 g ai/ha
  Plant response rating, Ducksalad: 50
ducksalad; 125 g ai/ha
  Plant response rating, Ducksalad: 60
ducksalad; 250 g ai/ha
  Plant response rating, Ducksalad: 100
Purple redstem; 16 g ai/ha
  Plant response rating, Redstem: 0
Purple redstem; 32 g ai/ha
  Plant response rating, Redstem: 45
Purple redstem; 64 g ai/ha
  Plant response rating, Redstem: 85
Purple redstem; 125 g ai/ha
  Plant response rating, Redstem: 85
Purple redstem; 250 g ai/ha
  Plant response rating, Redstem: 100

## C#CCOc1c(C[S+]([O-])c2cccc[n+]2[O-])c(C(F)(F)F)nn1C (stereo not shown) [Compound 76]
junglerice; 64 g ai/ha
  Plant response rating, Junglerice: 0
junglerice; 125 g ai/ha
  Plant response rating, Junglerice: 60
junglerice; 250 g ai/ha
  Plant response rating, Junglerice: 75
junglerice; 500 g ai/ha
  Plant response rating, Junglerice: 100
junglerice; 1000 g ai/ha
  Plant response rating, Junglerice: 100
Late watergrass; 64 g ai/ha
  Plant response rating, Watergrass, Late: 0
Late watergrass; 125 g ai/ha
  Plant response rating, Watergrass, Late: 40
Late watergrass; 250 g ai/ha
  Plant response rating, Watergrass, Late: 75
Late watergrass; 500 g ai/ha
  Plant response rating, Watergrass, Late: 95
Late watergrass; 1000 g ai/ha
  Plant response rating, Watergrass, Late: 95
[1]; 64 g ai/ha
  Plant response rating, Rice, Transplanted: 10
[1]; 125 g ai/ha
  Plant response rating, Rice, Transplanted: 10
[1]; 1000 g ai/ha
  Plant response rating, Rice, Transplanted: 40
barnyardgrass; 64 g ai/ha
  Plant response rating, Barnyardgrass: 0
barnyardgrass; 125 g ai/ha
  Plant response rating, Barnyardgrass: 60
barnyardgrass; 250 g ai/ha
  Plant response rating, Barnyardgrass: 85
barnyardgrass; 500 g ai/ha
  Plant response rating, Barnyardgrass: 95
barnyardgrass; 1000 g ai/ha
  Plant response rating, Barnyardgrass: 95
Rice flatsedge; 64 g ai/ha
  Plant response rating, Flatsedge, Rice: 85
Rice flatsedge; 125 g ai/ha
  Plant response rating, Flatsedge, Rice: 95
Rice flatsedge; 250 g ai/ha
  Plant response rating, Flatsedge, Rice: 95
Rice flatsedge; 500 g ai/ha
  Plant response rating, Flatsedge, Rice: 100
Rice flatsedge; 1000 g ai/ha
  Plant response rating, Flatsedge, Rice: 100
ducksalad; 64 g ai/ha
  Plant response rating, Ducksalad: 40
ducksalad; 125 g ai/ha
  Plant response rating, Ducksalad: 40
ducksalad; 250 g ai/ha
  Plant response rating, Ducksalad: 40
ducksalad; 500 g ai/ha
  Plant response rating, Ducksalad: 95
ducksalad; 1000 g ai/ha
  Plant response rating, Ducksalad: 95
Purple redstem; 64 g ai/ha
  Plant response rating, Redstem: 0
Purple redstem; 125 g ai/ha
  Plant response rating, Redstem: 40
Purple redstem; 250 g ai/ha
  Plant response rating, Redstem: 95
Purple redstem; 500 g ai/ha
  Plant response rating, Redstem: 100
Purple redstem; 1000 g ai/ha
  Plant response rating, Redstem: 100

## Cc1cc[n+]([O-])c(S(=O)(=O)Cc2c(C(F)(F)F)nn(C)c2OC(F)F)c1 [Compound 2]
Giant foxtail (SETFA); Cmpd 2 alone 125 g a.i./ha, scale 0 to 100, mean of four replicates
  Plant response rating SETFA Obsd.: 100
Giant foxtail (SETFA); Test H, alone, 125 g a.i./ha
  SETFA Obsd. (observed effect): 100
Corn (ZEAMD); 125 g a.i./ha
  ZEAMD Obsd. (observed effect): 69
Corn (ZEAMD); 250 g a.i./ha
  ZEAMD Obsd. (observed effect): 93
Wild oat (AVEFA); 125 g a.i./ha
  AVEFA Obsd. (observed effect): 93
Wild oat (AVEFA); 250 g a.i./ha
  AVEFA Obsd. (observed effect): 96
Winter wheat (TRZAW); 125 g a.i./ha
  TRZAW Obsd. (observed effect): 93
Winter wheat (TRZAW); 250 g a.i./ha
  TRZAW Obsd. (observed effect): 100
